Assay results as given in patent US9956204B2, “Composition for exterminating scuticociliates in fish including mebendazole” (NATIONAL INSTITUTE OF FISHERIES SCIENCE, priority 2016, dated 2018).

Experiments:
scuticociliates [1] = assay: Scuticociliates extermination effect of candidate substances in MEM medium; assay type: cell-based; details: MEM medium
Protocol: CHSE-214 cell line into which scuticociliates were inoculated was cultured in advance. The CHSE-214 cell line was cultured in an incubator using an MEM medium at 22° C. Scuticociliates inoculated into the cell line proliferated for 3 days by which the number reaches to be capable of analyzing in vitro anti-scuticociliates effect. Scuticociliates that feed on the cell line and sufficiently grow were mixed with the candidate substance and the activity of scuticociliates was measured.
In order to analyze the antiparasitic activity of the above 19 types of candidate substances of scuticociliates extermination drugs, scuticociliates were cultured for 3 days, and 100 μl (1×10^5) was dispensed into each well of 96 wells. The candidate substances were diluted by each concentration and the final volume was dispensed into 100 μl. Thereafter, the two were mixed and finally made into 200 μl.

scuticociliates [2] = assay: Scuticociliates extermination effect of candidate substances in seawater medium; assay type: cell-based; details: seawater medium, 4 hour
Protocol: For this, scuticociliates were cultured in CHSE-214 cell line (using MEM medium), and then scuticociliates were collected and centrifuged with sterilized seawater or artificial seawater (20‰) to replace them with a seawater medium. Each of 100 μl (1×10^5) was dispensed into each well of 96 wells, followed by further culture for 30 minutes. The candidate substances diluted in seawater to have a volume of 100 μl per each concentration were mixed with scuticociliates to have the final volume of 200 μl and cultured for 4 hour.

SMILES	Survival or Death of scuticociliates (activity and shape, microscope) (scuticociliates [1]; Dosage 10 ppm)	Survival or Death of scuticociliates (activity and shape, microscope) (scuticociliates [1]; Dosage 50 ppm)	Survival or Death of scuticociliates (activity and shape, microscope) (scuticociliates [1]; Dosage 100 ppm)	Survival or Death of scuticociliates (activity and shape, microscope) (scuticociliates [1]; Dosage 200 ppm)	Survival or Death of scuticociliates (activity and shape, microscope) (scuticociliates [1]; Dosage 400 ppm)	Survival or Death of scuticociliates (activity and shape, microscope) (scuticociliates [1]; Dosage 500 ppm)	Survival or Death of scuticociliates (activity and shape, microscope) (scuticociliates [2]; Dosage 500 ppm)	Survival or Death of scuticociliates (activity and shape, microscope) (scuticociliates [2]; Dosage 800 ppm)	Survival or Death of scuticociliates (activity and shape, microscope) (scuticociliates [2]; Dosage 900 ppm)	Survival or Death of scuticociliates (activity and shape, microscope) (scuticociliates [2]; Dosage 1000 ppm)	Survival or Death of scuticociliates (activity and shape, microscope) (scuticociliates [2]; Dosage 1500 ppm)	Survival or Death of scuticociliates (activity and shape, microscope) (scuticociliates [1]; Dosage 600 ppm)	Survival or Death of scuticociliates (activity and shape, microscope) (scuticociliates [1]; Dosage 700 ppm)	Survival or Death of scuticociliates (activity and shape, microscope) (scuticociliates [1]; Dosage 800 ppm)	Survival or Death of scuticociliates (activity and shape, microscope) (scuticociliates [1]; Dosage 900 ppm)	Survival or Death of scuticociliates (activity and shape, microscope) (scuticociliates [1]; Dosage 1000 ppm)	Survival or Death of scuticociliates (activity and shape, microscope) (scuticociliates [2]; Dosage 50 ppm)	Survival or Death of scuticociliates (activity and shape, microscope) (scuticociliates [2]; Dosage 100 ppm)	Survival or Death of scuticociliates (activity and shape, microscope) (scuticociliates [2]; Dosage 600 ppm)	Survival or Death of scuticociliates (activity and shape, microscope) (scuticociliates [2]; Dosage 700 ppm)	further results
CC[C@H](C)[C@H]1O[C@]2(C=C[C@@H]1C)C[C@@H]1C[C@@H](C/C=C(\C)[C@@H](O[C@H]3C[C@H](OC)[C@@H](O[C@H]4C[C@H](OC)[C@@H](O)[C@H](C)O4)[C@H](C)O3)[C@@H](C)/C=C/C=C3\CO[C@@H]4[C@H](O)C(C)=C[C@@H](C(=O)O1)[C@]34O)O2 [Abamectin]	Survival	Survival	Survival	Δ	Death	Death	Survival	Death	Death	Death	Death	–	–	–	–	–	–	–	–	–	Survival or Death of scuticociliates (activity and shape, microscope) (scuticociliates [1]; Dosage 20 ppm): Survival; Survival or Death of scuticociliates (activity and shape, microscope) (scuticociliates [1]; Dosage 150 ppm): Survival; Survival or Death of scuticociliates (activity and shape, microscope) (scuticociliates [2]; Dosage 2000 ppm): Death
CCCSc1ccc2nc(NC(=O)OC)[nH]c2c1 [Albendazole]	Survival	Survival	Survival	Survival	Survival	Survival	Survival	Δ	Death	Death	–	Survival	Survival	Δ	Death	Death	Survival	Survival	Survival	Survival	Survival or Death of scuticociliates (activity and shape, microscope) (scuticociliates [1]; Dosage 300 ppm): Survival; Survival or Death of scuticociliates (activity and shape, microscope) (scuticociliates [2]; Dosage 10 ppm): Survival; Survival or Death of scuticociliates (activity and shape, microscope) (scuticociliates [2]; Dosage 200 ppm): Survival; Survival or Death of scuticociliates (activity and shape, microscope) (scuticociliates [2]; Dosage 300 ppm): Survival; Survival or Death of scuticociliates (activity and shape, microscope) (scuticociliates [2]; Dosage 400 ppm): Survival
O=C(OCc1ccccc1)c1ccccc1 [Benzyl benzonate]	Survival	Survival	Survival	Survival	–	Survival	Δ	Death	–	–	–	Survival	–	Δ	–	Δ	Survival	Survival	Death	Death	–
Nc1cc(C(Cl)=C(Cl)Cl)c(S(N)(=O)=O)cc1S(N)(=O)=O [Clorsulon]	–	–	–	–	–	Survival	Survival	–	–	Survival	Death	–	Survival	Survival	Δ	Δ	Survival	–	–	–	Survival or Death of scuticociliates (activity and shape, microscope) (scuticociliates [1]; Dosage 2000 ppm): Death; Survival or Death of scuticociliates (activity and shape, microscope) (scuticociliates [1]; Dosage 4000 ppm): Death; Survival or Death of scuticociliates (activity and shape, microscope) (scuticociliates [2]; Dosage 250 ppm): Survival; Survival or Death of scuticociliates (activity and shape, microscope) (scuticociliates [2]; Dosage 1200 ppm): Survival; Survival or Death of scuticociliates (activity and shape, microscope) (scuticociliates [2]; Dosage 1400 ppm): Survival
CC1(C)[C@H](C(=O)O[C@H](C#N)c2cccc(Oc3ccccc3)c2)[C@@H]1C=C(Br)Br [Deltamethrin]	–	–	–	–	–	Survival	Survival	–	–	Survival	Death	Survival	Survival	Survival	Survival	Δ	–	–	–	–	Survival or Death of scuticociliates (activity and shape, microscope) (scuticociliates [1]; Dosage 2000 ppm): Death; Survival or Death of scuticociliates (activity and shape, microscope) (scuticociliates [1]; Dosage 5000 ppm): Death; Survival or Death of scuticociliates (activity and shape, microscope) (scuticociliates [2]; Dosage 250 ppm): Survival; Survival or Death of scuticociliates (activity and shape, microscope) (scuticociliates [2]; Dosage 1200 ppm): Death; Survival or Death of scuticociliates (activity and shape, microscope) (scuticociliates [2]; Dosage 1400 ppm): Death
COC(=O)Nc1nc2ccc(Sc3ccccc3)cc2[nH]1 [Fenbendazole]	Survival	Survival	Survival	Survival	Survival	Survival	Survival	Δ	Δ	Death	–	Survival	Survival	Δ	Δ	Death	Survival	Survival	Survival	Survival	Survival or Death of scuticociliates (activity and shape, microscope) (scuticociliates [1]; Dosage 300 ppm): Survival; Survival or Death of scuticociliates (activity and shape, microscope) (scuticociliates [2]; Dosage 10 ppm): Survival; Survival or Death of scuticociliates (activity and shape, microscope) (scuticociliates [2]; Dosage 200 ppm): Survival; Survival or Death of scuticociliates (activity and shape, microscope) (scuticociliates [2]; Dosage 300 ppm): Survival; Survival or Death of scuticociliates (activity and shape, microscope) (scuticociliates [2]; Dosage 400 ppm): Survival
